Data taken from US7973029B2 (Gilead Sciences, Inc., priority 2007, dated 2011).
Values after ≈ are worked out from the molar mass of the structure shown. Read-outs that look alike come from different tables or passages of the source. Marks after values point to notes of the source that are not given here.

Assays:
[1] = system: Pseudomonas aeruginosa (PA) isolates; test: Clinical Trial I: MIC for PA isolates; type: cell-based; conditions: for MIC50 / MIC90 / MIC: Pseudomonas aeruginosa
[2] = Clinical Trial II: sputum and plasma aztreonam concentrations; type: in vivo; conditions: human, sputum, inhaled, 75 mg, sputum aztreonam concentration, median (range), 10 minutes postdose
[3] = system: Pseudomonas aeruginosa (PA) isolates; test: Clinical Trial II: MIC of aztreonam for PA isolates; type: cell-based
[4] = system: PA; conditions: cited from earlier work
[5] = system: CF patients; conditions: cited from earlier work
[6] = Colistin, N = 62, 80 BID/28 days

C[C@H]1[C@H](NC(=O)/C(=N\OC(C)(C)C(=O)O)c2csc(N)n2)C(=O)N1S(=O)(=O)O [aztreonam]
MIC50 ([1]; 0 h, read-out: MIC50 of aztreonam for all PA isolates, isolates of AZLI-BID group, Day 0): 2 µg/mL (≈ 4.59 µM)
MIC50 ([1]; 0 h, read-out: MIC50 of aztreonam for all PA isolates, isolates of AZLI-Pooled group, Day 0): 2 µg/mL (≈ 4.59 µM)
MIC50 ([1]; 0 h, read-out: MIC50 of aztreonam for all PA isolates, isolates of AZLI-TID group, Day 0): 2 µg/mL (≈ 4.59 µM)
MIC50 ([1]; 0 h, read-out: MIC50 of aztreonam for all PA isolates, isolates of Placebo group, Day 0): ≤ 1 µg/mL
MIC90 ([1]; 0 h, read-out: MIC90 of aztreonam for all PA isolates, isolates of AZLI-BID group, Day 0): 64 µg/mL (≈ 147 µM)
MIC90 ([1]; 0 h, read-out: MIC90 of aztreonam for all PA isolates, isolates of AZLI-Pooled group, Day 0): 32 µg/mL (≈ 73.5 µM)
MIC90 ([1]; 0 h, read-out: MIC90 of aztreonam for all PA isolates, isolates of AZLI-TID group, Day 0): 32 µg/mL (≈ 73.5 µM)
MIC90 ([1]; 0 h, read-out: MIC90 of aztreonam for all PA isolates, isolates of Placebo group, Day 0): 64 µg/mL (≈ 147 µM)
MIC ([1]; 0 h, read-out: Maximum MIC of aztreonam for all PA isolates, isolates of AZLI-BID group, Day 0): > 2050 µg/mL
MIC ([1]; 0 h, read-out: Maximum MIC of aztreonam for all PA isolates, isolates of AZLI-Pooled group, Day 0): > 2050 µg/mL
MIC ([1]; 0 h, read-out: Maximum MIC of aztreonam for all PA isolates, isolates of AZLI-TID group, Day 0): 1020 µg/mL
MIC ([1]; 0 h, read-out: Maximum MIC of aztreonam for all PA isolates, isolates of Placebo group, Day 0): 1020 µg/mL
MIC ([1]; 0 h, read-out: Minimum MIC of aztreonam for all PA isolates, isolates of AZLI-BID group, Day 0): ≤ 1 µg/mL
MIC ([1]; 0 h, read-out: Minimum MIC of aztreonam for all PA isolates, isolates of AZLI-Pooled group, Day 0): ≤ 1 µg/mL
MIC ([1]; 0 h, read-out: Minimum MIC of aztreonam for all PA isolates, isolates of AZLI-TID group, Day 0): ≤ 1 µg/mL
MIC ([1]; 0 h, read-out: Minimum MIC of aztreonam for all PA isolates, isolates of Placebo group, Day 0): ≤ 1 µg/mL
concentration at 10 min ([2]; Day 0): 530000 ng/g
concentration at 10 min ([2]; Day 14): 677000 ng/g
concentration at 10 min ([2]; Day 28): 451000 ng/g
MIC50 ([3]; read-out: MIC50 of aztreonam for all PA isolates, isolates of AZLI group, baseline): 4 µg/mL
MIC50 ([3]; read-out: MIC50 of aztreonam for all PA isolates, isolates of Placebo group, baseline): 2 µg/mL
MIC90 ([3]; read-out: MIC90 of aztreonam for all PA isolates, isolates of AZLI group, baseline): 128 µg/mL
MIC90 ([3]; read-out: MIC90 of aztreonam for all PA isolates, isolates of Placebo group, baseline): 64 µg/mL
MIC ([3]; read-out: Maximum MIC of aztreonam for all PA isolates, isolates of AZLI group, baseline): > 2050 µg/mL
MIC ([3]; read-out: Maximum MIC of aztreonam for all PA isolates, isolates of Placebo group, baseline): 256 µg/mL
MIC ([3]; read-out: Minimum MIC of aztreonam for all PA isolates, isolates of Placebo group, baseline): ≤ 1 µg/mL

NC[C@H]1O[C@H](O[C@H]2[C@H](O)[C@@H](O[C@H]3O[C@H](CO)[C@@H](O)[C@H](N)[C@H]3O)[C@H](N)C[C@@H]2N)[C@H](N)C[C@@H]1O [tobramycin]
PA Density Change (Log10) ([4]; Tobramycin 600 TID, N = 36): −2.0 Log10
FEV1 Change (absolute change in FEV1 % predicted, comparison to control after 28 days of therapy) ([5]; 600 TID, N = 36): 10%^a
MIC50 and MIC90 of tobramycin for PA isolates, change ([1]; Days −28 to 56): ≤ 4 fold
MIC50 ([1]; isolates of AZLI-BID group, Day −28, read-out: MIC50 of tobramycin for all PA isolates): 1 µg/mL (≈ 2.14 µM)
MIC90 ([1]; isolates of AZLI-BID group, Day −28, read-out: MIC90 of tobramycin for all PA isolates): 16 µg/mL (≈ 34.2 µM)
MIC50 ([1]; isolates of AZLI-Pooled group, Day −28, read-out: MIC50 of tobramycin for all PA isolates): 1 µg/mL (≈ 2.14 µM)
MIC90 ([1]; isolates of AZLI-Pooled group, Day −28, read-out: MIC90 of tobramycin for all PA isolates): 32 µg/mL (≈ 68.4 µM)
MIC50 ([1]; isolates of AZLI-TID group, Day −28, read-out: MIC50 of tobramycin for all PA isolates): 2 µg/mL (≈ 4.28 µM)
MIC90 ([1]; isolates of AZLI-TID group, Day −28, read-out: MIC90 of tobramycin for all PA isolates): 64 µg/mL (≈ 137 µM)
MIC50 ([1]; isolates of Placebo group, Day −28, read-out: MIC50 of tobramycin for all PA isolates): 2 µg/mL (≈ 4.28 µM)
MIC90 ([1]; isolates of Placebo group, Day −28, read-out: MIC90 of tobramycin for all PA isolates): 256 µg/mL (≈ 548 µM)

Colistin
PA Density Change (Log10) [4, 6]: −0.6 Log10
FEV1 Change (relative change in FEV1 % predicted, comparison to control after 28 days of therapy) [5, 6]: 0%^b

B1: Pulmozyme: Pulmozyme registration trial comparator (protein, UniProt P24855 23-282, looked up)
Deoxyribonuclease-1: LKIAAFNIQTFGETKMSNATLVSYIVQILSRYDIALVQEVRDSHLTAVGKLLDNLNQDAPDTYHYVVSEPLGRNSYKERYLFVYRPDQVSAVDSYYYDDGCEPCGNDTFNREPAIVRFFSRFTEVREFAIVPLHAAPGDAVAEIDALYDVYLDVQEKWGLEDVMLMGDFNAGCSYVRPSQWSSIRLWTSPTFQWLIPDSADTTATPTHCAYDRIVVAGMLLRGAVVPDSALPFNFQAAYGLSDQLAQAISDHYPVEVMLK
FEV1 Change (percent change in FEV1 (L), comparison to control after 24 weeks of therapy) ([5]; 2.5 mg BID/24 weeks): 5.8 ± 0.7^c %
FEV1 Change (percent change in FEV1 (L), comparison to control after 24 weeks of therapy) ([5]; 2.5 mg TID/24 weeks): 5.6 ± 0.7^c %
